Data on 20 molecules can be found in BindingDB's records for doi:10.1021/jm00058a003 (Upjohn Laboratories, 1993).

The assay addresses 5-HT1A receptor (Bos taurus). In words: In vitro binding affinity towards [3H]8-OH-DPAT-labeled 5-hydroxytryptamine 1A receptor sites in bovine hippocampus.

As usually defined, the Ki is a dissociation constant, usually derived from enzyme kinetics or from competition with a known ligand. A higher Ki goes with a looser hold on the target. `C=CC[C@@H]1c2ccccc2CC[C@H]1NCCC` (relative stereo) [(trans)-(1-Allyl-1,2,3,4-tetrahydro-naphthalen-2-yl)-propyl-amine] registered a Ki greater than 1000 nM.

For `C=CC[C@@H]1c2cccc(OC)c2CC[C@H]1NCCC` (relative stereo) [(trans)-(1-Allyl-5-methoxy-1,2,3,4-tetrahydro-naphthalen-2-yl)-propyl-amine], the Ki was greater than 1000 nM. In turn, `C=CC[C@@H]1c2c(cccc2OC)CC[C@H]1NCC1CC1` (relative stereo) [(trans)-(1-Allyl-8-methoxy-1,2,3,4-tetrahydro-naphthalen-2-yl)-cyclopropylmethyl-amine] had a Ki of 4.1 nM. As for `C=CC[C@@H]1c2c(cccc2OC)CC[C@H]1NCCC` (relative stereo) [(trans)-(1-Allyl-8-methoxy-1,2,3,4-tetrahydro-naphthalen-2-yl)-propyl-amine], the figure is 19 nM; as for `CCCN[C@@H]1CCc2cccc(OC)c2[C@H]1CC1CC1` (relative stereo) [(trans)-(1-Cyclopropylmethyl-8-methoxy-1,2,3,4-tetrahydro-naphthalen-2-yl)-propyl-amine], 9.3 nM. As for `C=CCN[C@@H]1CCc2ccccc2[C@H]1CC=C` (relative stereo) [(trans)-Allyl-(1-allyl-1,2,3,4-tetrahydro-naphthalen-2-yl)-amine], the figure is greater than 1000 nM.

With `C=CCN[C@@H]1CCc2cccc(OC)c2[C@H]1CC1CC1` (relative stereo) [(trans)-Allyl-(1-cyclopropylmethyl-8-methoxy-1,2,3,4-tetrahydro-naphthalen-2-yl)-amine], the Ki is 15 nM. As for `C=CCN[C@@H]1CCc2cccc(O)c2[C@@H]1CC=C` [8-Allyl-7-allylamino-5,6,7,8-tetrahydro-naphthalen-1-ol], the figure is 1 nM; as for `C=CC[C@H]1c2c(O)cccc2CC[C@H]1NCCC` [8-Allyl-7-propylamino-5,6,7,8-tetrahydro-naphthalen-1-ol], 0.5 nM. Under `C=CC[C@H]1c2ccccc2CC[C@H]1NCCC` [(1-Allyl-1,2,3,4-tetrahydro-naphthalen-2-yl)-propyl-amine] stands 174 nM; under `C=CC[C@H]1c2cccc(OC)c2CC[C@H]1NCCC` [(1-Allyl-5-methoxy-1,2,3,4-tetrahydro-naphthalen-2-yl)-propyl-amine], greater than 1000 nM.

The molecule `C=CC[C@H]1c2c(cccc2OC)CC[C@H]1NCC1CC1` [(1-Allyl-8-methoxy-1,2,3,4-tetrahydro-naphthalen-2-yl)-cyclopropylmethyl-amine] had a Ki of 2.9 nM. As for `C=CC[C@H]1c2c(cccc2OC)CC[C@H]1N(CCC)CCC` [(1-Allyl-8-methoxy-1,2,3,4-tetrahydro-naphthalen-2-yl)-dipropyl-amine], the figure is 6.3 nM; as for `C=CC[C@H]1c2c(cccc2OC)CC[C@H]1NCCC` [(1-Allyl-8-methoxy-1,2,3,4-tetrahydro-naphthalen-2-yl)-propyl-amine], 1.8 nM.

The molecule `CCCN[C@@H]1CCc2cccc(OC)c2[C@@H]1CC1CC1` [(1-Cyclopropylmethyl-8-methoxy-1,2,3,4-tetrahydro-naphthalen-2-yl)-propyl-amine] gave an inhibition constant Ki of 15 nM. Under `CCCN[C@@H]1CCc2cccc(OC)c2[C@@H]1CCC` [(8-Methoxy-1-propyl-1,2,3,4-tetrahydro-naphthalen-2-yl)-propyl-amine] stands 11 nM. Under `CCCN[C@@H]1CCc2cccc(OC)c2[C@@H]1CO` [(8-Methoxy-2-propylamino-1,2,3,4-tetrahydro-naphthalen-1-yl)-methanol] stands 5.4 nM; under `C=CCN[C@@H]1CCc2ccccc2[C@@H]1CC=C` [Allyl-(1-allyl-1,2,3,4-tetrahydro-naphthalen-2-yl)-amine], 152 nM.

Turning to `C=CCN[C@@H]1CCc2cccc(OC)c2[C@@H]1CC1CC1` [Allyl-(1-cyclopropylmethyl-8-methoxy-1,2,3,4-tetrahydro-naphthalen-2-yl)-amine], the affinity corresponds to a Ki of 9.4 nM.

Consider `CCCN(C)[C@@H]1CCc2cccc(OC)c2[C@@H]1CO` [[8-Methoxy-2-(methyl-propyl-amino)-1,2,3,4-tetrahydro-naphthalen-1-yl]-methanol], for which the affinity, expressed as Ki, was 5 nM.
